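Dose response: 5 concentrations. Exposure: 48 h. Format: 96-well plates. Endpoint: linear interpolation; highest concentration if not reached. GI50 = concentration required for 50% inhibition of growth. TGI denotes the concentration required for complete inhibition of growth.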
How the values were obtained:
Assay in all cases: DTP human tumour cell line panel, 48 h
HOP-62 NSCLC = system: HOP-62 NSCLC
MALME-3M melanoma = system: MALME-3M melanoma
SNB-75 CNS = system: SNB-75 CNS
HS 578T breast = system: HS 578T breast
MOLT-4 leukemia = system: MOLT-4 leukemia
SN12C renal = system: SN12C renal
KM12 colon = system: KM12 colon
BT-549 breast = system: BT-549 breast
HOP-92 NSCLC = system: HOP-92 NSCLC
MCF7 breast = system: MCF7 breast
UACC-257 melanoma = system: UACC-257 melanoma
NCI-H460 lung = system: NCI-H460 lung
HT29 colon = system: HT29 colon
NCI/ADR-RES ovarian = system: NCI/ADR-RES ovarian
UO-31 renal = system: UO-31 renal
TK-10 renal = system: TK-10 renal
A549 NSCLC = system: A549 NSCLC
COLO 205 colon = system: COLO 205 colon
SK-MEL-28 melanoma = system: SK-MEL-28 melanoma
EKVX NSCLC = system: EKVX NSCLC
NCI-H226 lung = system: NCI-H226 lung
SNB-19 CNS = system: SNB-19 CNS
SK-MEL-2 melanoma = system: SK-MEL-2 melanoma
HL-60(TB) leukemia = system: HL-60(TB) leukemia
OVCAR-4 ovarian = system: OVCAR-4 ovarian
MDA-MB-435 = system: MDA-MB-435
T-47D breast = system: T-47D breast
HCT-116 colon = system: HCT-116 colon
M14 melanoma = system: M14 melanoma
K-562 leukemia = system: K-562 leukemia
CCRF-CEM leukemia = system: CCRF-CEM leukemia
SK-OV-3 ovarian = system: SK-OV-3 ovarian
OVCAR-8 ovarian = system: OVCAR-8 ovarian
PC-3 prostate = system: PC-3 prostate
ACHN renal = system: ACHN renal
SF-539 CNS = system: SF-539 CNS
HCT-15 colon = system: HCT-15 colon
NCI-H522 lung = system: NCI-H522 lung
NCI-H23 lung = system: NCI-H23 lung
RXF 393 renal = system: RXF 393 renal
SF-268 CNS = system: SF-268 CNS
MDA-MB-231 breast = system: MDA-MB-231 breast
OVCAR-5 ovarian = system: OVCAR-5 ovarian
CAKI-1 renal = system: CAKI-1 renal
U251 CNS = system: U251 CNS
786-0 renal = system: 786-0 renal
OVCAR-3 ovarian = system: OVCAR-3 ovarian
DU-145 prostate = system: DU-145 prostate
SK-MEL-5 melanoma = system: SK-MEL-5 melanoma
UACC-62 melanoma = system: UACC-62 melanoma
SR leukemia = system: SR leukemia
A498 renal = system: A498 renal
HCC-2998 colon = system: HCC-2998 colon
RPMI-8226 leukemia = system: RPMI-8226 leukemia
LOX IMVI melanoma = system: LOX IMVI melanoma
SW-620 colon = system: SW-620 colon
IGROV1 ovarian = system: IGROV1 ovarian
SF-295 CNS = system: SF-295 CNS

CC1CCC2C(CN(CC3=C(C(F)(F)F)OC4OC5(C)CCC6C(C)CCC3C46OO5)CC3=C(C(F)(F)F)OC4OC5(C)CCC6C(C)CCC3C46OO5)=C(C(F)(F)F)OC3OC4(C)CCC1C32OO4 (configuration not stated)
GI50 (HOP-62 NSCLC): 28.3 µM
TGI (HOP-62 NSCLC): 71.9 µM
GI50 (MALME-3M melanoma): 6.73 µM
TGI (MALME-3M melanoma): 23 µM
GI50 (SNB-75 CNS): 81.6 µM
TGI (SNB-75 CNS): > 100 µM
GI50 (HS 578T breast): 17.9 µM
TGI (HS 578T breast): 61.4 µM
GI50 (MOLT-4 leukemia): 9.11 µM
TGI (MOLT-4 leukemia): 39.9 µM
GI50 (SN12C renal): 18.7 µM
TGI (SN12C renal): 48.9 µM
GI50 (KM12 colon): 3.72 µM
TGI (KM12 colon): 10.1 µM
GI50 (BT-549 breast): 13.1 µM
TGI (BT-549 breast): 34.1 µM
GI50 (HOP-92 NSCLC): 6.3 µM
TGI (HOP-92 NSCLC): 33.4 µM
GI50 (MCF7 breast): 20.9 µM
TGI (MCF7 breast): 59.9 µM
GI50 (UACC-257 melanoma): 27.1 µM
TGI (UACC-257 melanoma): > 100 µM
GI50 (NCI-H460 lung): 12.9 µM
TGI (NCI-H460 lung): 30 µM
GI50 (HT29 colon): 25.1 µM
TGI (HT29 colon): > 100 µM
GI50 (NCI/ADR-RES ovarian): 26.8 µM
TGI (NCI/ADR-RES ovarian): 73.2 µM
GI50 (UO-31 renal): 29.1 µM
TGI (UO-31 renal): > 100 µM
GI50 (TK-10 renal): 15.4 µM
TGI (TK-10 renal): 30 µM
GI50 (A549 NSCLC): 12.1 µM
TGI (A549 NSCLC): 66.3 µM
GI50 (COLO 205 colon): 7.64 µM
TGI (COLO 205 colon): 28.6 µM
GI50 (SK-MEL-28 melanoma): 30.1 µM
TGI (SK-MEL-28 melanoma): > 100 µM
GI50 (EKVX NSCLC): 19.5 µM
TGI (EKVX NSCLC): 49.2 µM
GI50 (NCI-H226 lung): 19.4 µM
TGI (NCI-H226 lung): 57.8 µM
GI50 (SNB-19 CNS): 30.8 µM
TGI (SNB-19 CNS): > 100 µM
GI50 (SK-MEL-2 melanoma): 36.6 µM
TGI (SK-MEL-2 melanoma): > 100 µM
GI50 (HL-60(TB) leukemia): 3.12 µM
TGI (HL-60(TB) leukemia): 10.7 µM
GI50 (OVCAR-4 ovarian): 10.2 µM
TGI (OVCAR-4 ovarian): 33.4 µM
GI50 (MDA-MB-435): 4.54 µM
TGI (MDA-MB-435): 17.3 µM
GI50 (T-47D breast): 3.97 µM
TGI (T-47D breast): 27.2 µM
GI50 (HCT-116 colon): 11.6 µM
TGI (HCT-116 colon): 24.5 µM
GI50 (M14 melanoma): 22.2 µM
TGI (M14 melanoma): 59.7 µM
GI50 (K-562 leukemia): 5.58 µM
TGI (K-562 leukemia): 22.1 µM
GI50 (CCRF-CEM leukemia): 4.8 µM
TGI (CCRF-CEM leukemia): 28 µM
GI50 (SK-OV-3 ovarian): 35.2 µM
TGI (SK-OV-3 ovarian): > 100 µM
GI50 (OVCAR-8 ovarian): 14.1 µM
TGI (OVCAR-8 ovarian): 76.4 µM
GI50 (PC-3 prostate): 3.99 µM
TGI (PC-3 prostate): 20.1 µM
GI50 (ACHN renal): 1.81 µM
TGI (ACHN renal): 3.49 µM
GI50 (SF-539 CNS): 11.9 µM
TGI (SF-539 CNS): 38.6 µM
GI50 (HCT-15 colon): 10 µM
TGI (HCT-15 colon): 25.7 µM
GI50 (NCI-H522 lung): 16.2 µM
TGI (NCI-H522 lung): 42.2 µM
GI50 (NCI-H23 lung): 6.04 µM
TGI (NCI-H23 lung): 19.7 µM
GI50 (RXF 393 renal): 2.45 µM
TGI (RXF 393 renal): 22.4 µM
GI50 (SF-268 CNS): 18.7 µM
TGI (SF-268 CNS): 48.4 µM
GI50 (MDA-MB-231 breast): 13.4 µM
TGI (MDA-MB-231 breast): 36.6 µM
GI50 (OVCAR-5 ovarian): 15.3 µM
TGI (OVCAR-5 ovarian): > 100 µM
GI50 (CAKI-1 renal): 5.87 µM
TGI (CAKI-1 renal): 18.4 µM
GI50 (U251 CNS): 5.12 µM
TGI (U251 CNS): 19.2 µM
GI50 (786-0 renal): 8.48 µM
TGI (786-0 renal): 21.9 µM

C=C1C(=O)O[C@H]2[C@H]1CC/C(COC(=O)NCc1c[nH]c3ccc(F)cc13)=C\CC[C@@]1(C)O[C@@H]21
GI50 (HOP-62 NSCLC): 2 µM
TGI (HOP-62 NSCLC): 4.56 µM
GI50 (MALME-3M melanoma): 1.66 µM
TGI (MALME-3M melanoma): 3.32 µM
GI50 (SNB-75 CNS): 1.33 µM
TGI (SNB-75 CNS): 2.76 µM
GI50 (HS 578T breast): 3.36 µM
TGI (HS 578T breast): 26.6 µM
GI50 (MOLT-4 leukemia): 1.42 µM
TGI (MOLT-4 leukemia): 5.07 µM
GI50 (SN12C renal): 1.32 µM
TGI (SN12C renal): 2.84 µM
GI50 (KM12 colon): 3.03 µM
TGI (KM12 colon): 10.3 µM
GI50 (BT-549 breast): 1.15 µM
TGI (BT-549 breast): 2.5 µM
GI50 (OVCAR-3 ovarian): 0.984 µM
TGI (OVCAR-3 ovarian): 3.07 µM
GI50 (HOP-92 NSCLC): 1.48 µM
TGI (HOP-92 NSCLC): 3.04 µM
GI50 (UACC-257 melanoma): 1.69 µM
TGI (UACC-257 melanoma): 3.29 µM
GI50 (NCI-H460 lung): 2.4 µM
TGI (NCI-H460 lung): 6.03 µM
GI50 (DU-145 prostate): 1.08 µM
TGI (DU-145 prostate): 2.48 µM
GI50 (HT29 colon): 1.07 µM
TGI (HT29 colon): 2.58 µM
GI50 (NCI/ADR-RES ovarian): 3.58 µM
TGI (NCI/ADR-RES ovarian): 20.3 µM
GI50 (UO-31 renal): 1.52 µM
TGI (UO-31 renal): 2.87 µM
GI50 (TK-10 renal): 1.58 µM
TGI (TK-10 renal): 3 µM
GI50 (A549 NSCLC): 3.17 µM
TGI (A549 NSCLC): 10.9 µM
GI50 (SK-MEL-5 melanoma): 1.69 µM
TGI (SK-MEL-5 melanoma): 3.11 µM
GI50 (UACC-62 melanoma): 1.47 µM
TGI (UACC-62 melanoma): 2.87 µM
GI50 (COLO 205 colon): 1.39 µM
TGI (COLO 205 colon): 2.95 µM
GI50 (SK-MEL-28 melanoma): 1.63 µM
TGI (SK-MEL-28 melanoma): 3.24 µM
GI50 (EKVX NSCLC): 1.89 µM
TGI (EKVX NSCLC): 4.51 µM
GI50 (NCI-H226 lung): 1.74 µM
TGI (NCI-H226 lung): 3.3 µM
GI50 (SNB-19 CNS): 6.56 µM
TGI (SNB-19 CNS): 20 µM
GI50 (SK-MEL-2 melanoma): 1.5 µM
TGI (SK-MEL-2 melanoma): 3.39 µM
GI50 (OVCAR-4 ovarian): 1.52 µM
TGI (OVCAR-4 ovarian): 3.59 µM
GI50 (MDA-MB-435): 1.31 µM
TGI (MDA-MB-435): 3.1 µM
GI50 (HCT-116 colon): 0.703 µM
TGI (HCT-116 colon): 2.04 µM
GI50 (M14 melanoma): 1.23 µM
TGI (M14 melanoma): 2.73 µM
GI50 (K-562 leukemia): 0.291 µM
TGI (K-562 leukemia): 1.86 µM
GI50 (CCRF-CEM leukemia): 0.302 µM
TGI (CCRF-CEM leukemia): 1.2 µM
GI50 (SR leukemia): 0.266 µM
TGI (SR leukemia): 5.85 µM
GI50 (SK-OV-3 ovarian): 11.1 µM
TGI (SK-OV-3 ovarian): 23.1 µM
GI50 (OVCAR-8 ovarian): 1.68 µM
TGI (OVCAR-8 ovarian): 3.91 µM
GI50 (A498 renal): 3.46 µM
TGI (A498 renal): 12.9 µM
GI50 (PC-3 prostate): 1.48 µM
TGI (PC-3 prostate): 3.05 µM
GI50 (ACHN renal): 1.36 µM
TGI (ACHN renal): 2.67 µM
GI50 (HCC-2998 colon): 1.77 µM
TGI (HCC-2998 colon): 3.41 µM
GI50 (SF-539 CNS): 1.63 µM
TGI (SF-539 CNS): 3.36 µM
GI50 (HCT-15 colon): 1.04 µM
TGI (HCT-15 colon): 2.55 µM
GI50 (RPMI-8226 leukemia): 0.456 µM
TGI (RPMI-8226 leukemia): 2.27 µM
GI50 (NCI-H522 lung): 0.835 µM
TGI (NCI-H522 lung): 2.4 µM
GI50 (NCI-H23 lung): 1.83 µM
TGI (NCI-H23 lung): 3.89 µM
GI50 (LOX IMVI melanoma): 0.952 µM
TGI (LOX IMVI melanoma): 2.28 µM
GI50 (SW-620 colon): 0.619 µM
TGI (SW-620 colon): 2.65 µM
GI50 (RXF 393 renal): 1.53 µM
TGI (RXF 393 renal): 3 µM
GI50 (SF-268 CNS): 1.81 µM
TGI (SF-268 CNS): 3.9 µM
GI50 (MDA-MB-231 breast): 1.63 µM
TGI (MDA-MB-231 breast): 3.16 µM
GI50 (OVCAR-5 ovarian): 1.81 µM
TGI (OVCAR-5 ovarian): 4.05 µM
GI50 (CAKI-1 renal): 1.53 µM
TGI (CAKI-1 renal): 3.18 µM
GI50 (IGROV1 ovarian): 1.54 µM
TGI (IGROV1 ovarian): 3.34 µM
GI50 (U251 CNS): 2.35 µM
TGI (U251 CNS): 5.81 µM
GI50 (SF-295 CNS): 4.29 µM
TGI (SF-295 CNS): 16.6 µM
GI50 (786-0 renal): 0.899 µM
TGI (786-0 renal): 2.43 µM

— PubChem BioAssay (NCI)
